The test system of this test is MC3T3-E1 cells. Kind of test: Osteoblast differentiation assay and Alizarin Red S staining (calcification). It is filed as cell-based, mouse. The procedure: MC3T3-E1 cells (10^5 cells/ml medium per well in a 12-well plate) were cultured for 3 days in a-MEM (1.0 ml per well) containing 10% FBS and 1% P/S. Thereafter, the medium was replaced, as previously described, with calcification-promoting medium, that is, a-MEM supplemented with 10% FBS, 1% P/S, L-ascorbic acid ([…]), and 4 mM b- glycerophosphoric acid. DHMBA was added at a concentration of 1 or 10 mM, and the cells were cultured for 18 days, with the medium replaced every 3 days with fresh medium. On day 18 of culture, the cells were rinsed with PBS and fixed by addition of ice-cold 75% ethanol at 4°C for 30 minutes. Then, calcium deposition was visualized by staining with Alizarin Red S (40 mM, pH 6.2). After incubation at room temperature for 30 minutes, the staining solution was removed by thorough washing with distilled water. Stained cells on the plates were photographed under a microscope (×40) (Olympus IX71, Olympus Corp., Tokyo, Japan) and imaged using ImageJ2 software. For quantification, the stained cells in each plate were solubilized by addition of 10% cetylpyridinium chloride solution, and absorbance was measured at 570 nm.

In the case of `COc1c(O)cc(CO)cc1O` [DHMBA, 3,5-dihydroxy-4-methoxybenzyl alcohol], the “calcification of MC3T3-E1 cells” value (DHMBA 1 or 10 mM, 18 days in calcification-promoting medium, Alizarin Red, absorbance 570 nm, Figs. 2A and 2B) is on record as “enhanced”. Also, the “TNF-a-induced suppression of calcification of osteoblasts” value (TNF-a 1 ng/ml plus DHMBA 1 or 10 mM, 18 days, Fig. 4) is reported as “suppressed”.

(Values after EP4778516A1, “CALCIFICATION ENHANCER FOR OSTEOBLAST MC3T3-E1 CELL” (Watanabe Oyster Laboratory Co., Ltd., priority 2023, dated 2025).)
